Laboratory results taken from patent US20240190855A1 (Relay Therapeutics, Inc., priority 2021, published 2024).

These compounds were tested against T1, CDK2/Cyclin E complex (Homo sapiens, UniProt P24941) (assay: CDK2/Cyclin E fluorescence-based microfluidic mobility shift assay (CDK2 Biochemical Caliper Assay)). Conditions: read-out: Biochemical CDK2/CyclinE Caliper IC50.
T1 construct: purchased Eurofins 14-475
Procedure, shortened: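 Microfluidic mobility-shift readout after EDTA termination measured phosphorylation of fluorescent FL Peptide 18 (1.5 uM final) in a 20 hr room-temperature reaction. Compounds were tested at 11 concentrations (3-fold).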

IC50	SMILES
1000 to 100000 nM	COCc1cc(C(=O)Nc2cc([C@H]3CC[C@@H](Oc4cncnc4C)C3)[nH]n2)n(C)n1 (single isomer, unassigned) [Example 490]
1000 to 100000 nM	COCc1cc(C(=O)Nc2cc([C@@H]3CC[C@H](Oc4cncnc4C)C3)[nH]n2)n(C)n1 (single isomer, unassigned) [Example 491]
≤ 100 nM	COCc1cc(C(=O)Nc2cc([C@H]3CC[C@@H](Oc4cc(C(C)C)cnn4)C3)[nH]n2)n(C)n1 (single isomer, unassigned) [Example 492]
100 to 250 nM	COCc1cc(C(=O)Nc2cc([C@@H]3CC[C@H](Oc4cc(C(C)C)cnn4)C3)[nH]n2)n(C)n1 (single isomer, unassigned) [Example 493]
250 to 1000 nM	COCc1cc(C(=O)Nc2cc([C@H]3CC[C@@H](Oc4nccnc4C)C3)[nH]n2)n(C)n1 (single isomer, unassigned) [Example 494]
250 to 1000 nM	COCc1cc(C(=O)Nc2cc([C@@H]3CC[C@H](Oc4nccnc4C)C3)[nH]n2)n(C)n1 (single isomer, unassigned) [Example 495]
1000 to 100000 nM	c1cncc(O[C@@H]2CC[C@H](c3cc(Nc4ncnc5ncccc45)n[nH]3)C2)c1 (single isomer, unassigned) [Example 498]
250 to 1000 nM	c1cncc(O[C@H]2CC[C@@H](c3cc(Nc4ncnc5ncccc45)n[nH]3)C2)c1 (single isomer, unassigned) [Example 499]
≤ 100 nM	CC(C)NC(=O)O[C@@H]1CC[C@H](c2cc(Nc3nccn4nc(C(F)(F)F)cc34)n[nH]2)C1 (single isomer, unassigned) [Example 500]
≤ 100 nM	CC(C)NC(=O)O[C@H]1CC[C@@H](c2cc(Nc3nccn4nc(C(F)(F)F)cc34)n[nH]2)C1 (single isomer, unassigned) [Example 501]
1000 to 100000 nM	COCc1cc(C(=O)Nc2cc([C@H]3CC[C@@H](Oc4nccnc4C(F)F)C3)[nH]n2)n(C)n1 (single isomer, unassigned) [Example 502]
1000 to 100000 nM	COCc1cc(C(=O)Nc2cc([C@@H]3CC[C@H](Oc4cccnc4C(F)F)C3)[nH]n2)n(C)n1 (single isomer, unassigned) [Example 503]
1000 to 100000 nM	c1cncc(O[C@@H]2CC[C@H](c3cc(Nc4nccn5nccc45)n[nH]3)C2)c1 (single isomer, unassigned) [Example 504]
≤ 100 nM	c1cncc(O[C@H]2CC[C@@H](c3cc(Nc4nccn5nccc45)n[nH]3)C2)c1 (single isomer, unassigned) [Example 505]
≤ 100 nM	COCc1cc(C(=O)Nc2cc([C@H]3CC[C@@H](Oc4ncccc4C(C)C)C3)[nH]n2)n(C)n1 (single isomer, unassigned) [Example 506]
≤ 100 nM	COCc1cc(C(=O)Nc2cc([C@@H]3CC[C@H](Oc4ncccc4C(C)C)C3)[nH]n2)n(C)n1 (single isomer, unassigned) [Example 507]
≤ 100 nM	COCc1cc(C(=O)Nc2cc([C@H]3CC[C@@H](Oc4nccnc4C(C)C)C3)[nH]n2)n(C)n1 (single isomer, unassigned) [Example 508]
≤ 100 nM	CCc1ccnnc1O[C@@H]1CC[C@H](c2cc(NC(=O)c3cc(COC)nn3C)n[nH]2)C1 (single isomer, unassigned) [Example 509]
≤ 100 nM	CCc1ccnnc1O[C@H]1CC[C@@H](c2cc(NC(=O)c3cc(COC)nn3C)n[nH]2)C1 (single isomer, unassigned) [Example 510]
1000 to 100000 nM	COCc1cc2c(Nc3cc([C@H]4CC[C@@H](Oc5cccnc5C)C4)[nH]n3)nccn2n1 (single isomer, unassigned) [Example 511]

IC50	SMILES
100 to 250 nM	COCc1cc2c(Nc3cc([C@@H]4CC[C@H](Oc5cccnc5C)C4)[nH]n3)nccn2n1 (single isomer, unassigned) [Example 512]
1000 to 100000 nM	COCc1cc2c(Nc3cc([C@H]4CC[C@@H](Oc5cccnc5)C4)[nH]n3)nccn2n1 (single isomer, unassigned) [Example 525]
100 to 250 nM	COCc1cc2c(Nc3cc([C@@H]4CC[C@H](Oc5cccnc5)C4)[nH]n3)nccn2n1 (single isomer, unassigned) [Example 526]
≤ 100 nM	CC(C)NC(=O)O[C@@H]1CC[C@H](c2cc(Nc3ccc4c(n3)C(C)(C)NC4=O)n[nH]2)C1 (single isomer, unassigned) [Example 527]
≤ 100 nM	CC(C)NC(=O)O[C@H]1CC[C@@H](c2cc(Nc3ccc4c(n3)C(C)(C)NC4=O)n[nH]2)C1 (single isomer, unassigned) [Example 528]
≤ 100 nM	CNC(=O)O[C@@H]1CC[C@H](c2cc(Nc3ccc4c(n3)C(C)(C)NC4=O)n[nH]2)C1 (single isomer, unassigned) [Example 529]
≤ 100 nM	CNC(=O)O[C@H]1CC[C@@H](c2cc(Nc3ccc4c(n3)C(C)(C)NC4=O)n[nH]2)C1 (single isomer, unassigned) [Example 530]
≤ 100 nM	COCc1cc(C(=O)Nc2cc([C@@H]3CC[C@H](Oc4nccnc4C(C)C)C3)[nH]n2)n(C)n1 (single isomer, unassigned) [Example 531]
≤ 100 nM	COCc1cc(C(=O)Nc2cc([C@H]3CC[C@@H](Oc4nncc5cnccc45)C3)[nH]n2)n(C)n1 (single isomer, unassigned) [Example 534]
250 to 1000 nM	COCc1cc(C(=O)Nc2cc([C@@H]3CC[C@H](Oc4nncc5cnccc45)C3)[nH]n2)n(C)n1 (single isomer, unassigned) [Example 535]
1000 to 100000 nM	COCc1cc(C(=O)Nc2cc([C@@H]3C[C@H](Oc4cnccc4C4CC4)CO3)[nH]n2)n(C)n1 (single isomer, unassigned) [Example 538]
250 to 1000 nM	COCc1cc(C(=O)Nc2cc([C@H]3C[C@@H](Oc4cnccc4C4CC4)CO3)[nH]n2)n(C)n1 (single isomer, unassigned) [Example 539]
250 to 1000 nM	COCc1cc(C(=O)Nc2cc([C@H]3CC[C@@H](c4ccc(C)[nH]c4=O)C3)[nH]n2)n(C)n1 (single isomer, unassigned) [Example 542]
1000 to 100000 nM	COCc1cc(C(=O)Nc2cc([C@@H]3CC[C@H](c4ccc(C)[nH]c4=O)C3)[nH]n2)n(C)n1 (single isomer, unassigned) [Example 543]
≤ 100 nM	Cc1ncccc1O[C@@H]1CC[C@H](c2cc(Nc3ccc4c(c3)C(C)(C)NC4=O)n[nH]2)C1 (single isomer, unassigned) [Example 546]
≤ 100 nM	Cc1ncccc1O[C@H]1CC[C@@H](c2cc(Nc3ccc4c(c3)C(C)(C)NC4=O)n[nH]2)C1 (single isomer, unassigned) [Example 547]
≤ 100 nM	CC(C)NC(=O)O[C@@H]1CC[C@H](c2cc(Nc3ccc4c(c3)C(C)(C)NC4=O)n[nH]2)C1 (single isomer, unassigned) [Example 548]
≤ 100 nM	CC(C)NC(=O)O[C@H]1CO[C@@H](c2cc(Nc3ccc4c(c3)C(C)(C)NC4=O)n[nH]2)C1 (single isomer, unassigned) [Example 549]
≤ 100 nM	COCc1cc(C(=O)Nc2cc([C@H]3CC[C@@H](Oc4nnccc4C4CCC4)C3)[nH]n2)n(C)n1 (single isomer, unassigned) [Example 550]
≤ 100 nM	COCc1cc(C(=O)Nc2cc([C@@H]3CC[C@H](Oc4nnccc4C4CCC4)C3)[nH]n2)n(C)n1 (single isomer, unassigned) [Example 551]
